Data on five compounds can be found in patent US5137811A, “Method for diagnosing periodontal diseases with a substrate specific for aminopeptidase activity of periodontopathic bacteria” (Sunstar Kabushiki Kaisha, priority 1986, dated 1992).

Molecules are shown by their SMILES. Where a SMILES comes first, the peptide text is derived from it. The star is where a group is joined. βNA = c1ccc2cc(N*)ccc2c1; Cbz = O=C(OCc1ccccc1)*

The subject of assay [1] is Actinobacillus actinomycetemcomitans. Briefly: Hydrolytic activity of oral anaerobe cell suspension on aminopeptidase substrates (Experiment 1). The class given is cell-based. Conditions: four strains, substrate 0.2 mM, pH 7.0, 37° C., 60 minutes, Table 1. The protocol: (§1) Oral anaerobes, i.e., four strains of Treponema denticola, five strains of B. gingivalis, four strains of Actinobacillus actinomycetemcomitans, four strains of Capnocytophaga sp. and three strains of Fusobacterium nucleatum were tested for hydrolytic activity to the substrate of aminopeptidase enzyme as follows.
(§2) The strains of Treponema were anaerobically cultivated using TYGVS media at 37° C. for 7 days, while other bacterial strains were cultivated using brain heart infusion broth at 37° C. for 48 to 72 hours. Each culture was diluted to obtain a bacterial cell suspension, the absorption at 660 nm of which was 1.0.
(§3) Substrate compounds for aminopeptidase enzyme having various color developing groups derived from β-naphthylamine were dissolved in 0.1M Tris-HCl buffer (pH 7.0) at the concentration of 0.2 mM to obtain substrate solutions.
(§4) To the substrate solution (1.5 ml) was added the above cell suspension (0.3 ml) and reacted at 37° C. for 60 minutes. After completion of the reaction, a coloring reagent [prepared by dissolving diazonium salt of Garnet GBC in 1M acetate buffer (containing 10% Tween 20, pH: 4.2) at the concentration of 0.5 mg/ml] was added and, after 15 minutes, the absorption at 525 nm was determined with a spectrophotometer.
(§5) On the basis of the average amount of released β-naphthylamine in each strain, the hydrolytic activity was expressed as follows: […]

Assay [2] relates to Bacteroides gingivalis. The assay is described as above. It is filed as cell-based. Conditions: five strains, substrate 0.2 mM, pH 7.0, 37° C., 60 minutes, Table 1. The protocol:
as §1, §2, §3, §4, §5

The test system of assay [3] is Fusobacterium nucleatum. The description is as above. The class given is cell-based. Conditions: three strains, substrate 0.2 mM, pH 7.0, 37° C., 60 minutes, Table 1. The protocol: as §1, §2, §3, §4, §5
For assay [4], the system named is Treponema denticola. The assay is described as above. Conditions: four strains, substrate 0.2 mM, pH 7.0, 37° C., 60 minutes, Table 1. It is filed as cell-based. The protocol:
as §1, §2, §3, §4, §5

For assay [5], the system named is Capnocytophaga sp. The assay is described as above. To be noted: four strains, substrate 0.2 mM, pH 7.0, 37° C., 60 minutes, Table 1. The class given is cell-based. The protocol: as §1, §2, §3, §4, §5
Assay [6] deals with Actinobacillus actinomycetemcomitans. Briefly: Hydrolytic activity of cell suspension on aminopeptidase substrates (Experiment 2). The class given is cell-based. Conditions: four strains, Table 2. The protocol: as §2, §3, §4, §5
(§6) According to the same manner as described in Experiment 1, periodontopathic bacteria specific aminopeptidase activity was tested by using four strains of Treponema denticola, five strains of B. gingivalis, three strains of B. intermedius, two strains of B. melaninogenicus, two strains of Actinomyces israelli, four strains of Actinobacillus actinomycetemcomitans and three strains of Fusobacterium nucleatum. Abbreviations used in Table 2 mean the following substrate compounds.

Assay [7] concerns Fusobacterium nucleatum. Described as above. The class given is cell-based. To be noted: three strains, Table 2. The protocol: as §2, §3, §4, §5, §6
Assay [8] relates to Treponema denticola. Described as above. It is filed as cell-based. To be noted: four strains, Table 2. The protocol: as §2, §3, §4, §5, §6
In assay [9] the test system is B. gingivalis. Described as above. The class given is cell-based. To be noted: five strains, Table 2. The protocol: as §2, §3, §4, §5, §6
For assay [10], the system named is B. melaninogenicus. The description is as above. To be noted: two strains, Table 2. It is filed as cell-based. The protocol: as §2, §3, §4, §5, §6
Assay [11] concerns Actinomyces israelli. The assay is described as above. The class given is cell-based. Conditions: two strains, Table 2. The protocol: as §2, §3, §4, §5, §6
The subject of assay [12] is B. corporis. The description is as above. It is filed as cell-based. To be noted: Table 2. The protocol: as §2, §3, §4, §5, §6
Assay [13] has as its system B. intermedius. The assay is described as above. It is filed as cell-based. To be noted: three strains, Table 2. The protocol:
as §2, §3, §4, §5, §6

Assay [14] concerns B. denticola. The assay is described as above. The class given is cell-based. Conditions: Table 2. The protocol: as §2, §3, §4, §5, §6
The subject of assay [15] is periodontopathic bacteria specific aminopeptidase activity. Briefly: Hydrolytic activity of gingival crevicular fluid specimens, visually evaluated (Experiment 5). It is filed as biochemical. Set-up: key: -: orange; +: dark orange; ++: brown; +++: dark brown. The protocol: as §3, §4
Specimens of gingival crevicular fluid were collected with paper points from five subjects who were considered to be healthy from their clinical state, six subjects with gingivitis and six subjects with periodontitis. Each specimen was dispersed in Ringer's solution (1.5 ml), and the relative amount of spirochete to total bacteria: [formula] was determined with a phase contrast microscope. Further, the Ringer's solution (0.3 ml) was tested for hydrolytic activity using the substrate solution prepared in the same manner as described in Experiment 1. As substrates, there were used compounds of the formula [1], i.e., N-benzoylvalyl-glycyl-arginine-β-naphthylamide (BzVGR) and N-carbobenzoxy-valyl-glycyl-arginine-β-naphthylamide (CxVGR) were used.
In table 4, hydrolytic activity was visually evaluated and expressed as follows: […]
According to the same manner as described in Experiment 4, hydrolytic activity was tested by using the compounds of the formula [2], i.e., lysyl-proline-β-naphthylamide (KP) and N-carbobenzoxy-prolyl-alanyl-glycylproline-β-naphthylamide (CxPAGP) as the substrates.

For `C[C@H](N)C(=O)Nc1ccc2ccccc2c1` [A, alanine-β-naphthylamide, reference compound], the “hydrolytic activity (average amount of released β-naphthylamine)” value in [1] is “- (release amount<5 nmol/ml)”; in assay [2], “- (release amount<5 nmol/ml)”; in assay [3] it was “- (release amount<5 nmol/ml)”; in assay [4], “- (release amount<5 nmol/ml)”; in assay [5], “+++ (release amount≥40 nmol/ml)”; in [6], “- (release amount<5 nmol/ml)”. The “hydrolytic activity (average amount of released β-naphthylamine)” value in [7], in [8], in [9], in assay [10], in assay [11] and in assay [12] was “- (release amount<5 nmol/ml)” throughout. The “hydrolytic activity (average amount of released β-naphthylamine)” value in assay [13] and in assay [14] was “- (release amount<5 nmol/ml)” each time.

Consider `C[C@H](NC(=O)[C@@H]1CCCN1C(=O)OCc1ccccc1)C(=O)NCC(=O)N1CCC[C@H]1C(=O)Nc1ccc2ccccc2c1` [CxPAGP, N-carbobenzoxy-prolyl-alanyl-glycyl-proline-β-naphthylamide] (Cbz-PAGP-βNA), for which the “hydrolytic activity, visually evaluated” value in [15] (Gingivitis subject 1 (spirochete 7.3 %)) is reported as “+”; in [15] (Gingivitis subject 2 (spirochete 16.7 %)), “+”; in assay [15] (Gingivitis subject 3 (spirochete 20.5 %)) it was “++”; in assay [15] (Gingivitis subject 4 (spirochete 6.8 %)) it was “-”; in assay [15] (Gingivitis subject 5 (spirochete 7.3 %)) it was “-”; in assay [15] (Gingivitis subject 6 (spirochete 14.4 %)) it was “+”. The “hydrolytic activity, visually evaluated” value is given as “-” in assay [15] (Healthy subject 1 (spirochete 0.1 %)); “+” in assay [15] (Healthy subject 2 (spirochete 2.5 %)); “-” in [15] (Healthy subject 3 (spirochete 1.1 %)); “-” in assay [15] (Healthy subject 4 (spirochete 0.6 %)); “-” in assay [15] (Healthy subject 5 (spirochete 1.3 %)); “+++” in [15] (Periodontitis subject 1 (spirochete 45.2 %)). Besides, the “hydrolytic activity, visually evaluated” value in assay [15] (Periodontitis subject 2 (spirochete 30.3 %)), in assay [15] (Periodontitis subject 3 (spirochete 34.6 %)), in [15] (Periodontitis subject 4 (spirochete 21.2 %)), in assay [15] (Periodontitis subject 5 (spirochete 40.3 %)) and in [15] (Periodontitis subject 6 (spirochete 35.1 %)) was “+++” throughout. The “hydrolytic activity (average amount of released β-naphthylamine)” value in [6] is “- (release amount<5 nmol/ml)”; in assay [7], “- (release amount<5 nmol/ml)”; in assay [8], “+++ (release amount≥40 nmol/ml)”; in assay [9], “+ (10 ≤release amount<20 nmol/ml)”; in assay [10], “+++ (release amount≥40 nmol/ml)”; in assay [11], “- (release amount<5 nmol/ml)”. The results for the “hydrolytic activity (average amount of released β-naphthylamine)” value in [12], in [13] and in assay [14] were “++ (20 ≤release amount<40 nmol/ml)”, “+++ (release amount≥40 nmol/ml)” and “+++ (release amount≥40 nmol/ml)”, respectively.

Consider `NCC(=O)Nc1ccc2ccccc2c1` [G, glycine-β-naphthylamide, reference compound], for which the “hydrolytic activity (average amount of released β-naphthylamine)” value in assay [1] was “- (release amount<5 nmol/ml)”; in assay [2], “- (release amount<5 nmol/ml)”; in [3], “- (release amount<5 nmol/ml)”; in [4], “- (release amount<5 nmol/ml)”; in assay [5], “+ (10 ≤release amount<20 nmol/ml)”; in assay [6], “- (release amount<5 nmol/ml)”. Besides, the “hydrolytic activity (average amount of released β-naphthylamine)” value in assay [7], in assay [8], in assay [9], in [10], in assay [11] and in [12] was “- (release amount<5 nmol/ml)” each time. Moreover, the “hydrolytic activity (average amount of released β-naphthylamine)” value in assay [13] and in assay [14] was “- (release amount<5 nmol/ml)” throughout.

As to `NCCCC[C@H](N)C(=O)Nc1ccc2ccccc2c1` [K, lysine-β-naphthylamide, reference compound], the “hydrolytic activity (average amount of released β-naphthylamine)” value is listed as “- (release amount<5 nmol/ml)” in [1]; “- (release amount<5 nmol/ml)” in assay [2]; “- (release amount<5 nmol/ml)” in [3]; “- (release amount<5 nmol/ml)” in assay [4]; “+++ (release amount≥40 nmol/ml)” in [5]; “- (release amount<5 nmol/ml)” in [6]. Also, the “hydrolytic activity (average amount of released β-naphthylamine)” value in assay [7], in assay [8], in [9], in assay [10], in assay [11] and in [12] was “- (release amount<5 nmol/ml)” each time. The “hydrolytic activity (average amount of released β-naphthylamine)” value in assay [13] and in [14] was “- (release amount<5 nmol/ml)” in each case.

Regarding `CC(C)[C@H](N)C(=O)N[C@@H](C)C(=O)Nc1ccc2ccccc2c1` [VA, valyl-alanine-β-naphthylamide, reference compound] (H-Val-Ala-βNA), the “hydrolytic activity (average amount of released β-naphthylamine)” value is given as “- (release amount<5 nmol/ml)” in [6]; “- (release amount<5 nmol/ml)” in assay [7]; “- (release amount<5 nmol/ml)” in [8]; “++ (20 ≤release amount<40 nmol/ml)” in assay [9]; “± (5 ≤release amount<10 nmol/ml)” in assay [10]; “- (release amount<5 nmol/ml)” in assay [11]. The “hydrolytic activity (average amount of released β-naphthylamine)” value was “± (5 ≤release amount<10 nmol/ml)” in [12], “- (release amount<5 nmol/ml)” in assay [13] and “± (5 ≤release amount<10 nmol/ml)” in [14].
